The values below come from article PMC13626384 (Journal of medicinal chemistry, 2025).

Series [1] can be described thus: Plasma stability. It is filed as in vitro ADME. The following applies: for Plasma Stability % remaining: mouse plasma; for remaining at 2 h / remaining at 5 h: mouse, plasma, Plasma Stability % remaining.
For series [2], the target named is human immunoproteasome (i20S) β1 (Homo sapiens, UniProt P28065+P40306). Nature of the series: Proteasome subunit inhibition, i20S β1. Type of series: biochemical.
Series [3] has as its system D283-med cell line. Nature of the series: Cytotoxicity against D283-med cells. Type of series: cell-based, human. The following applies: read-out: D283-med IC50.
In series [4] the test system is H460 cell line. Briefly: Cytotoxicity against H460 cells. It is filed as cell-based.
The target in series [5] is human immunoproteasome (i20S) β5 (Homo sapiens, UniProt P20618+P28062). Nature of the series: Proteasome subunit inhibition, i20S β5. Conditions: read-out: i20S β5 IC50 ± SD; read 60 to 90 minutes after start. It is filed as biochemical.
Series [6] has as its system SF188 cell line. Briefly: Cytotoxicity against SF188 cells. Type of series: cell-based, human.
The target in series [7] is human immunoproteasome (i20S) β2 (Homo sapiens, UniProt P40306+P49720). Nature of the series: Proteasome subunit inhibition, i20S β2. Type of series: biochemical.
Series [8] can be described thus: PAMPA-BBB permeability assay. The following applies: PAMPA-BBB. (In general: PAMPA measures passive passage across an artificial lipid membrane.)
Series [9] is described as follows: in vitro. Conditions: mouse liver microsomes. For orientation: Liver microsomes are a subcellular fraction often used to study metabolism.
Series [10] can be described thus: Liver microsomal stability. The following applies: mouse liver microsomes.
Series [11] has as its system Caco-2 cells. Nature of the series: Caco-2 cell permeability and efflux. It is filed as in vitro ADME, human. The following applies: for Efflux Ratio: Caco-2; for % Recovery (A-B): Caco-2, A-B direction; for % Recovery (B-A): Caco-2, B-A direction; for Pe (A-B): Caco-2, apical to basolateral; for Pe (B-A): Caco-2, basolateral to apical. In general terms: Passage across Caco-2 layers is used to estimate intestinal permeability.

Series [12] in a line: In vivo pharmacokinetics, plasma and brain. The arrangement: species or system Male C57BL/6 mice. The following applies: mice, 10 mg/kg i.v.
The nature of series [13]: Caco-2 cell permeability and efflux. Conditions: human. Type of series: in vitro ADME, human.
Series [14] deals with human constitutive proteasome (c20S) β1 (Homo sapiens, UniProt P28072+Q99436). Briefly: Proteasome subunit inhibition, c20S β1. Type of series: biochemical.
The mark [15] stands for this setting: read-out: i20S β1 IC50 ± SD, read 60 to 90 minutes after start.
Where [16] appears, read: read-out: H460 IC50, non-small cell lung cancer cell line.
Where [17] appears, read: read-out: SF188 IC50, glioblastoma cell line.
Where [18] appears, read: read-out: i20S β2 IC50 ± SD, read 60 to 90 minutes after start.
Where [19] appears, read: Homo sapiens, SF-188, read-out: SF188 IC50, glioblastoma cell line.
Where [20] appears, read: pretreated with tariquidar, 0.5 h.

Where two headings read alike, the source gives them in different places. Where only a bound is given, the exact number is not on record here.

As to `CC(C)C[C@H](NC(=O)[C@@H]1Cc2c(F)c(F)c(c(F)c2F)Sc2cccc(c2)CC(=O)N[C@@H]([C@@H](C)O)C(=O)N1)C(=O)[C@@]1(C)CO1` [Compound 14, (5S,8S)-3^2,3^3,3^5,3^6-Tetrafluoro-8-((R)-1-hydroxyethyl)-N-((S)-4-methyl-1-((R)-2-methyloxiran-2-yl)-1-oxopentan-2-yl)-7,10-dioxo-2-thia-6,9-diaza-1(1,3),3(1,4)-dibenzenacycloundecaphane-5-carboxamide], the “Plasma Stability % remaining” value in [1] (after 5 hr) is “more than 75%”. The half-inhibitory concentration (IC50) is 310 ± 39.5 nM in series [2] (setting [15]); 20 ± 1 nM in [3] (medulloblastoma cell line); 186 ± 52 nM in [4] (setting [16]); 858 ± 342 nM in series [5]; 40 ± 9 nM in series [6] (setting [17]); 1060 ± 171 nM in series [7] (setting [18]). Besides, the “% Recovery” value in series [8] was 53%. The “Mean Permeability” value in series [8] is 3.75 10^−6 cm/sec. The “Pe (effective permeability)” value in [8] was “around 4 10^−6 cm s^−1”.

Regarding `CC(C)C[C@H](NC(=O)[C@@H]1Cc2ccc(cc2)OCCCCCC(=O)N[C@@H](C(C)C)C(=O)N1)C(=O)[C@@]1(C)CO1` [Compound 33, (10S,13S)-10-Isopropyl-N-((S)-4-methyl-1-((R)-2-methyloxiran-2-yl)-1-oxopentan-2-yl)-8,11-dioxo-2-oxa-9,12-diaza-1(1,4)-benzenacyclotetradecaphane-13-carboxamide], the IC50 in series [2] (setting [15]) turned out to be 81.7 ± 8.6 nM; in series [3] (medulloblastoma cell line) it was 10.1 ± 2.1 nM; in series [4] (setting [16]), 53 ± 15 nM; in [5], 32.9 ± 5.9 nM; in [6] (setting [17]), 12.2 ± 0.4 nM; in [7] (setting [18]), 67.4 ± 8.4 nM. Further, the “% Recovery” value in [8] worked out at 87%. In addition, in series [8], the “Mean Permeability” value is 1.49 10^−6 cm/sec.

In [9], `CC(C)C[C@H](NC(=O)C(CSc1c(F)c(F)c(F)c(F)c1F)NC(=O)[C@@H](NC(=O)CCc1ccccc1)C(C)C)C(=O)[C@@]1(C)CO1` (stereo in doubt) [Compound 2, (S)-3-Methyl-N-((S)-1-(((S)-4-methyl-1-((R)-2-methyloxiran-2-yl)-1-oxopentan-2-yl)amino)-1-oxo-3-((perfluorophenyl)thio)propan-2-yl)-2-(3-phenylpropanamido)butanamide] showed a half-life below 5 min. This molecule also yielded an amount remaining at 2 h in [1] (after 2 hr) above 99%. Besides, in series [1] (after 5 hr), the share remaining at 5 h was above 75%. The “Microsomal Stability Clearance Category” value in series [10] is recorded as “High”. Also, the 50% inhibitory concentration (IC50) is 632 ± 167 nM in series [4] (setting [16]), below 200 nM in series [6] (setting [19]) and 132 ± 22 nM in series [6] (setting [17]).

For `CC(C)C[C@H](NC(=O)[C@@H]1CSCCCCCCCCCC(=O)N[C@@H](C(C)C)C(=O)N1)C(=O)[C@@]1(C)CO1` [Compound 39], the “Plasma Stability % remaining” value in [1] (after 2 hr) was 87 after 2 hr %. Besides, the “Plasma Stability % remaining” value in series [1] (after 5 hr) was “more than 75%”. Besides, the IC50 in [2] (setting [15]) is 99 ± 8.4 nM. Further, in series [10], the “Microsomal Stability Clearance Category” value is recorded as “Medium”, the “Microsomal Stability mCLint” value was found to be 33 µL/min/mg and the “Microsomal Stability t1/2” value worked out at 42 min. For the same molecule, the IC50 in [3] (medulloblastoma cell line) is 14.8 ± 2.3 nM. Besides, the IC50 in series [4] (setting [16]) turned out to be 79 ± 21 nM. For the same molecule, in [5], the IC50 was found to be 63.9 ± 7.2 nM. Further, the IC50 in series [6] (setting [17]) is 20 ± 3 nM. For the same molecule, in series [11], the “Efflux Ratio” value is 1.5, the “% Recovery (A-B)” value was 67%, the “% Recovery (B-A)” value was found to be 74% and the “Pe (A-B)” value is recorded as 9.8 10^−6 cm/sec. Also, in [11], the “Pe (B-A)” value is on record as 14.6 10^−6 cm/sec. For the same molecule, in [7] (setting [18]), the IC50 is 45.3 ± 3.1 nM. Besides, in [8], the “% Recovery” value came to 44%, the “Mean Permeability” value was 3.43 10^−6 cm/sec and the “Pe (effective permeability)” value was “around 4 10^−6 cm s^−1”.

“S)-N-((S)-4-Methyl-1-((R)-2-methyloxiran-2-yl)-1-oxopentan-2-yl)-8,11-dioxo-2-oxa-9,12-diaza-1(1,4)-benzenacyclotetradecaphane-13-carboxamide [Compound 35]”: the entries for the “Plasma Stability % remaining” value in series [1] (after 2 hr) and in series [1] (after 5 hr) were 64 after 2 hr % and “more than 75%”, respectively. Moreover, the 50% inhibitory concentration (IC50) in series [2] (setting [15]) turned out to be 78.2 ± 5.3 nM; in series [3] (medulloblastoma cell line) it was 332 ± 12 nM; in [4] (setting [16]), 853 ± 90 nM; in series [5] it was 1900 ± 587 nM; in [6] (setting [17]), 806 ± 388 nM; in series [7] (setting [18]), 1750 ± 240 nM. For the same molecule, the “Microsomal Stability Clearance Category” value in series [10] was “Low”. Besides, the “Microsomal Stability mCLint” value in series [10] amounted to 10 µL/min/mg. Also, the “Mean B/P ratio” value in [12] (alone, 1.0 h) was determined as 0.08; in series [12] (setting [20]), 0.80. In addition, the “Mean Brain Con” value is 26.3 ng/g in [12] (alone, 1.0 h); “below the quantification limit and BLQ” in series [12] (alone, 2.0 h, LLOQ 2.00 ng/mL, 10 mg/kg); 137.0 ng/g in series [12] (pretreated with tariquidar (13 mg/kg, i.p.), 0.5 h); “below the quantification limit and BLQ” in series [12] (pretreated with tariquidar, 2.0 h, LLOQ 2.00 ng/mL). The “Mean Plasma Conc.” value in [12] (alone, 1.0 h) amounted to 330 ng/mL; in series [12] (alone, 2.0 h) it was 5.3 ng/mL; in series [12] (setting [20]), 165.7 ng/mL; in series [12] (pretreated with tariquidar, 2.0 h), 5.0 ng/mL. Moreover, the Brain concentration in series [12] (compound by itself, 30 minutes) came to 26 ng/mL; in series [12] (tariquidar group, 30 minutes), 137 ng/mL. The Brain-to-plasma ratio in series [12] (compound by itself, 30 minutes) is 0.08. The “Plasma Cmax (average)” value in series [12] (with and without tariquidar) turned out to be 2453 ng/mL. The Plasma half-life in series [12] (with and without tariquidar) is ~ 0.25 hours. Further, the “Efflux Ratio” value in series [11] was determined as 2.5. Also, the “% Recovery (A-B)” value in series [11] is given as 98%. Further, the “% Recovery (B-A)” value in series [11] is 93%. In addition, the “Pe (A-B)” value in [11] is on record as 18.6 10^−6 cm/sec. Further, in [11], the “Pe (B-A)” value is 46.5 10^−6 cm/sec. Further, the “% Recovery” value in series [8] is 100%. Moreover, the “Mean Permeability” value in series [8] is 6.81 10^−6 cm/sec. Also, the “Pe (effective permeability)” value in series [8] is on record as 6.8 10^−6 cm s^−1.

Molecule `CC(C)C[C@H](NC(=O)C(CSc1c(F)c(F)c(F)c(F)c1F)NC(=O)[C@@H](NC(=O)c1cc(Cl)ccc1Cl)C(C)C)C(=O)[C@@]1(C)CO1` (stereo in doubt) [Compound 4, 2,5-Dichloro-N-((S)-3-methyl-1-(((S)-1-(((S)-4-methyl-1-((R)-2-methyloxiran-2-yl)-1-oxopentan-2-yl)amino)-1-oxo-3-((perfluorophenyl)thio)propan-2-yl)amino)-1-oxobutan-2-yl)benzamide] registered a half-life in [9] below 5 min. This molecule also returned an amount remaining at 2 h in series [1] (after 2 hr) above 99%. Moreover, the amount remaining at 5 h in [1] (after 5 hr) is above 75%. Moreover, in [10], the “Microsomal Stability Clearance Category” value is “High”. Further, the concentration for half-maximal inhibition (IC50) was below 200 nM in series [6] (setting [19]) and 192 ± 70 nM in series [6] (setting [17]). In [13] (Caco-2), this molecule registered a Papp B→A of 1.3 ×10⁻⁶ cm/s. Besides, the recovery in series [13] (Caco-2, % Recovery (A-B), Caco-2, A-B direction) came to 27%; in series [13] (Caco-2, % Recovery (B-A), Caco-2, B-A direction) it was 42%.

With `C[C@@]12OC(=O)[C@]1([C@@H](O)[C@@H]1C=CCCC1)NC(=O)[C@@H]2CCCl` [Marizomib, reference compound], the half-life in series [9] is below 5 min. Also, the half-maximal inhibitory concentration (IC50) in series [14] was found to be 336 ± 27.2 nM; in [2] it was 40.5 ± 1.7 nM; in series [3] (Homo sapiens, D283 Med), 70 ± 3 nM; in series [4] (Homo sapiens, NCI-H460, read-out: H460 IC50) it was 73 ± 6 nM; in [6] (Homo sapiens, SF-188, read-out: SF188 IC50) it was 22 ± 4 nM; in series [7], 207 ± 22.3 nM. Besides, the share remaining at 2 h in [1] (after 2 hr) was 20%. In series [10], the “Microsomal Stability Clearance Category” value is recorded as “High”. The molecule also had a recovery in series [8] (PAMPA, % Recovery) of 2%. The Papp in series [8] (PAMPA, Mean Permeability) came out at 0.13 ×10⁻⁶ cm/s.

What is called IC50 is the point on the concentration scale where inhibition reaches its midpoint. As a reminder, the half-life is how long it takes for the measured level to halve. Low readings indicate fast loss, high ones slow loss. As a reminder, the amount remaining is the share of the starting amount still present when the sample was taken. Low values mean more turnover, high ones less turnover. The term Papp B→A denotes how fast a substance crosses the layer from the basolateral side. The term Papp denotes a coefficient for how fast a substance crosses the barrier. Lower therefore signals slow passage.
